Values after ≈ are worked out from the molar mass of the structure shown.
Tests used:
[1] = test system: Staphylococcus aureus C10; assay: Antibacterial activity against clinically isolated S. aureus (agar dilution MIC, Table 2); type: cell-based; conditions: Staphylococcus aureus; strain C10; agar dilution; Mueller Hinton medium; 10^6 CFU/ml; read-out: MIC
Experimental: (§1) DMPPC: Methicillin, KM: Kanamycin, GM: Gentamycin, EM: Erythromycin (Note
(§2) Determined by the agar dilution method. Medium: Mueller Hinton medium
(§3) (Difco, USA) Inoculum Size: 10^6 CFU/ml, 37° C.

[2] = test system: Staphylococcus aureus C4; assay: as above; type: cell-based; conditions: Staphylococcus aureus, C4
Experimental: as §1, §2, §3

[3] = test system: Staphylococcus aureus N129; assay: as above; type: cell-based; conditions: Staphylococcus aureus; strain N129; agar dilution; Mueller Hinton medium; 10^6 CFU/ml; read-out: MIC
Experimental: as §1, §2, §3

[4] = test system: Staphylococcus aureus N176-3; assay: as above; type: cell-based; conditions: Staphylococcus aureus, N1763; strain N176-3; agar dilution; Mueller Hinton medium; 10^6 CFU/ml; read-out: MIC
Experimental: as §1, §2, §3

[5] = test system: Staphylococcus aureus N247-21; assay: as above; type: cell-based; conditions: Staphylococcus aureus, N24721; strain N247-21; agar dilution; Mueller Hinton medium; 10^6 CFU/ml; read-out: MIC
Experimental: as §1, §2, §3

[6] = test system: Staphylococcus aureus N247; assay: as above; type: cell-based; conditions: Staphylococcus aureus; strain N247; agar dilution; Mueller Hinton medium; 10^6 CFU/ml; read-out: MIC
Experimental: as §1, §2, §3

[7] = test system: Staphylococcus aureus N262; assay: as above; type: cell-based; conditions: Staphylococcus aureus; strain N262; agar dilution; Mueller Hinton medium; 10^6 CFU/ml; read-out: MIC
Experimental: as §1, §2, §3

[8] = test system: Staphylococcus aureus N28; assay: as above; type: cell-based; conditions: Staphylococcus aureus; strain N28; agar dilution; Mueller Hinton medium; 10^6 CFU/ml; read-out: MIC
Experimental: as §1, §2, §3

[9] = test system: Staphylococcus aureus N8; assay: as above; type: cell-based; conditions: Staphylococcus aureus; strain N8; agar dilution; Mueller Hinton medium; 10^6 CFU/ml; read-out: MIC
Experimental: as §1, §2, §3

[10] = test system: Staphylococcus aureus TS-65; assay: as above; type: cell-based; conditions: Staphylococcus aureus, TS65; strain TS-65; agar dilution; Mueller Hinton medium; 10^6 CFU/ml; read-out: MIC
Experimental: as §1, §2, §3

[11] = test system: Staphylococcus aureus TST-75; assay: as above; type: cell-based; conditions: Staphylococcus aureus, TST75; strain TST-75; agar dilution; Mueller Hinton medium; 10^6 CFU/ml; read-out: MIC
Experimental: as §1, §2, §3

[12] = test system: Eubacterium sp. biurens 515; assay: MIC against anaerobic bacteria (Table 3); type: cell-based; conditions: 10^6 CFU/ml, GAM medium, Gas Pack, 37° C., 18 hours
Experimental: (§4) Inoculum size: 10^6 CFU/ml
(§5) ^Note 1 GAM medium(Nissui),
(§6) Gas Pack (BBL), 37° C., 18 hours

[13] = test system: Fusobacterium necroform VPI 2891; assay: MIC against anaerobic bacteria (Table 3); type: cell-based; conditions: VPI2891, 10^6 CFU/ml, GAM medium, Gas Pack, 37° C., 18 hours
Experimental: as §4, §5, §6

[14] = test system: Lactobacillus acidophilus ATCC 4356; assay: MIC against anaerobic bacteria (Table 3); type: cell-based; conditions: ATCC4356, 10^6 CFU/ml, GAM medium, Gas Pack, 37° C., 18 hours
Experimental: as §4, §5, §6

[15] = test system: Bacteroides thermophilis PNA-1-24; assay: MIC against anaerobic bacteria (Table 3); type: cell-based; conditions: PNA124, 10^6 CFU/ml, GAM medium, Gas Pack, 37° C., 18 hours
[16] = test system: Bacteroides fladilis ATCC 2509; assay: MIC against anaerobic bacteria (Table 3); type: cell-based; conditions: ATCC2509, 10^6 CFU/ml, GAM medium, Gas Pack, 37° C., 18 hours
[17] = test system: Clostridium perfringens PB6K; assay: microbe, parasite or virus in culture; type: cell-based; conditions: 18 h
[18] = test system: Mycoplasma garisepticum TB-3A; assay: MIC against Mycoplasma (Table 3); type: cell-based; conditions: TB3A, 120 h, 10^6 CFU/ml, Hayflick medium, 37° C., 5 days
[19] = test system: Staphylococcus aureus 308A-1; assay: Therapeutic effect on infectious disease in mice (Table 5); type: in vivo
[20] = Conversion in aqueous solution; type: physicochemical; conditions: room temperature
Excerpt: For example, in case that the mixture of TAN-1057A and B is isolated as crystals of the sulfate, the ratio of TAN-1057A and B is about 6 to 8:4 to 2.
The term "Antibiotics TAN-1057" in the present specification includes also a mixture which contains TAN-1057A, B, C and D in an optional combination and an optional ratio thereof.

[21] = test system: Mycoplasma pulmonis M-53; assay: MIC against Mycoplasma (Table 3); conditions: M53, 120 h

CN(C(=O)C[C@@H](N)CCCNC(=N)N)[C@H]1CNC(NC(N)=O)=NC1=O [TAN-1057A]
MIC [1]: 0.78 µg/mL (≈ 2.19 µM)
MIC [2]: 6.25 µg/mL (≈ 17.6 µM)
MIC [3]: 0.39 µg/mL (≈ 1.1 µM)
MIC [4]: 1.56 µg/mL (≈ 4.39 µM)
MIC [5]: 0.78 µg/mL (≈ 2.19 µM)
MIC [6]: 1.56 µg/mL (≈ 4.39 µM)
MIC [7]: 0.78 µg/mL (≈ 2.19 µM)
MIC [8]: 0.78 µg/mL (≈ 2.19 µM)
MIC [9]: 0.78 µg/mL (≈ 2.19 µM)
MIC [10]: 0.78 µg/mL (≈ 2.19 µM)
MIC [11]: 0.78 µg/mL (≈ 2.19 µM)
MIC [12]: 12.5 µg/mL (≈ 35.2 µM)
MIC [13]: 3.13 µg/mL (≈ 8.81 µM)
MIC [14]: 6.25 µg/mL (≈ 17.6 µM)
MIC [15]: 0.78 µg/mL (≈ 2.19 µM)
MIC [16]: 50 µg/mL (≈ 141 µM)
MIC [17]: 12.5 µg/mL (≈ 35.2 µM)
MIC [18]: 3.13 µg/mL (≈ 8.81 µM)
ED50 ([19]; 308A1, ip infection, Oral): ~1 mg/kg
ED50 ([19]; 308A1, sc, ip infection, Subcutaneous): ~0.1 mg/kg
conversion of TAN-1057A and B into each other [20]: converted easily each other
MIC [21]: 0.39 µg/mL (≈ 1.1 µM)
